These results are taken from US20220340566A1, “BENZYL AMINE-CONTAINING 5,6-HETEROAROMATIC COMPOUNDS USEFUL AGAINST MYCOBACTERIAL INFECTION” (priority 2019, published 2022).

The structures appear in SMILES notation.

The test system of data set [1] is Mycobacterium avium ATCC700898. The data set can be described thus: Determination of IC85 against M. avium (resazurin fluorescence). Format: cell-based. The conditions noted are these: Mycobacterium avium, ATCC700898, M. avium ATCC700898, CAMHB medium, 37° C., 3 days incubation then resazurin, fluorescence one day later; read-out: IC85. (The colour change of resazurin is a common sign of viable cells or microbes.)

A short description of data set [2]: Metabolic stability test in pooled human liver microsomes. Type of data set: in vitro ADME. The settings on record: human liver microsomes 0.5 mg protein/mL, 1 mmol/L NADPH, 37° C., 30 minutes. Summed up: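 Remaining-rate readout: parent compound left after 30 min versus 0 min (set as 100%), measured by LC/MS/MS or SPE/MS. Oxidative reaction ran at 37° C. with 1 mmol/L NADPH, 0.5 mg protein/mL pooled human microsomes, 50 mmol/L Tris-HCl pH 7.4 buffer.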

As for `CCc1nc2cc(F)ccn2c1C(=O)NCc1ccc(C2CCN(c3ccc(C)cc3)CC2)cc1F.Cl` [Compound I-1-148], the IC85 in data set [1] is 5.4 nM. For the same compound, in data set [2], the “MS_h_% (remaining amount of compound after reaction, 0 minute = 100%)” value amounted to 73%.

`CCc1nc2cc(F)ccn2c1C(=O)NCc1ccc(C2CCN(c3ccc(C(C)(C)C)cc3)CC2)cc1F.Cl` [Compound I-1-149]: the IC85 in data set [1] was 15 nM. Besides, the “MS_h_% (remaining amount of compound after reaction, 0 minute = 100%)” value in data set [2] was determined as 63%.

As for `CCc1nc2cc(F)ccn2c1C(=O)NCc1ccc(C2CCN(c3ccc(C(F)(F)F)cc3)CC2)cc1F.Cl` [Compound I-1-150], the IC85 in data set [1] turned out to be 2.4 nM. Also, in data set [2], the “MS_h_% (remaining amount of compound after reaction, 0 minute = 100%)” value is given as 65%.

In the case of `CCCCOc1ccc(N2CCC(c3ccc(CNC(=O)c4c(CC)nc5cc(F)ccn45)c(F)c3)CC2)cc1.Cl` [Compound I-1-151], the IC85 in data set [1] is 10 nM. The “MS_h_% (remaining amount of compound after reaction, 0 minute = 100%)” value in data set [2] was 88%.

As for `Cc1nn2ccc(F)cc2c1C(=O)NCc1ccc(N2CCN(c3ccc(OC(F)(F)F)cc3)[C@@H](C)C2)c(F)c1.Cl` [Compound I-1-152], in data set [1], the IC85 is 110 nM. Moreover, the “MS_h_% (remaining amount of compound after reaction, 0 minute = 100%)” value in data set [2] stood at 87%.

On to `COc1ccn2nc(C)c(C(=O)NCc3ccc(N4C[C@H](C)N(c5ccc(OC(F)(F)F)cc5)C[C@H]4C)c(F)c3)c2c1.Cl` [Compound I-1-153], for which the IC85 in data set [1] was determined as 31 nM. The “MS_h_% (remaining amount of compound after reaction, 0 minute = 100%)” value in data set [2] stood at 72%.

In the case of `Cc1nc2cc(F)ccn2c1C(=O)NCc1ccc(N2CCC(c3ccc(OC(F)(F)F)cc3)CC2)c(F)c1` [Compound I-2-1], in data set [1], the IC85 amounted to 16 nM. The “MS_h_% (remaining amount of compound after reaction, 0 minute = 100%)” value in data set [2] was determined as 106%.

For `COc1ccn2c(C(=O)NCc3ccc(N4CCN(c5ccc(OC(F)(F)F)cc5)[C@@H](C)C4)c(F)c3)c(C)nc2c1` [Compound I-2-2], in data set [1], the IC85 turned out to be 370 nM. Moreover, the “MS_h_% (remaining amount of compound after reaction, 0 minute = 100%)” value in data set [2] was 97.7%.

For `CCc1nc2cc(F)ccn2c1C(=O)NCc1ccc(N2CCN(c3ccc(OCC(F)(F)F)nc3)[C@@H](CC)C2)c(F)c1.Cl` [Compound I-2-3], in data set [1], the IC85 worked out at 17 nM. The “MS_h_% (remaining amount of compound after reaction, 0 minute = 100%)” value in data set [2] came to 90.3%.

For the compound `CCc1nc2cc(F)ccn2c1C(=O)NCc1ccc(N2CCN(c3ccc(OC(F)(F)F)cc3)[C@@H](CC)C2)c(F)c1.Cl` [Compound I-2-4], the IC85 in data set [1] turned out to be 6.5 nM. The “MS_h_% (remaining amount of compound after reaction, 0 minute = 100%)” value in data set [2] is on record as 90.1%.

Regarding `Cc1nc2ccc(F)cn2c1C(=O)NCc1ccc(N2CCN(c3ccc(C(F)(F)F)cn3)CC2)c(C(F)(F)F)c1` [Compound I-2-5], in data set [1], the IC85 is 420 nM. Besides, in data set [2], the “MS_h_% (remaining amount of compound after reaction, 0 minute = 100%)” value is listed as 81.8%.

In the case of `CCCC[C@H]1CN(c2ccc(CNC(=O)c3c(CC)nc4cc(F)ccn34)cc2F)CCN1c1ccc(OC(F)(F)F)cc1.Cl` [Compound I-2-6], in data set [1], the IC85 turned out to be 4.4 nM. Besides, the “MS_h_% (remaining amount of compound after reaction, 0 minute = 100%)” value in data set [2] is recorded as 80.8%.

Turning to `Cc1cn2c(C(=O)NCc3ccc(N4CCN(c5ccc(C(F)(F)F)cn5)CC4)c(C(F)(F)F)c3)c(C)nc2cc1Cl` [Compound I-2-7], in data set [1], the IC85 was 590 nM. The “MS_h_% (remaining amount of compound after reaction, 0 minute = 100%)” value in data set [2] is listed as 79.3%.

Regarding `Cc1nc2ccc(F)cn2c1C(=O)NCc1ccc(N2CC(c3ccc(OC(F)(F)F)cc3)C2)c(F)c1` [Compound I-2-8], in data set [1], the IC85 was determined as 130 nM. In addition, the “MS_h_% (remaining amount of compound after reaction, 0 minute = 100%)” value in data set [2] was determined as 74.9%.

Regarding `CC[C@H]1CN(c2ccc(CNC(=O)c3c(C)nn4ccc(OC)cc34)cc2F)CCN1c1ccc(OC(F)(F)F)cc1.Cl` [Compound I-2-9], the IC85 in data set [1] is 19 nM. In addition, the “MS_h_% (remaining amount of compound after reaction, 0 minute = 100%)” value in data set [2] came out at 73.5%.

Consider `CCc1nc2ccc(Cl)cn2c1C(=O)NCc1ccc(N2CCN(c3ccc(OC(F)(F)F)cc3F)[C@@H](CC)C2)c(F)c1.Cl` [Compound I-2-10], for which the IC85 in data set [1] was found to be 23 nM. Besides, in data set [2], the “MS_h_% (remaining amount of compound after reaction, 0 minute = 100%)” value amounted to 72.2%.

`Cc1nc2ccc(Br)cn2c1C(=O)NCc1ccc(N2CCN(c3ccc(C(F)(F)F)cn3)CC2)c(F)c1` [Compound I-2-11]: the IC85 in data set [1] turned out to be 20 nM. In addition, the “MS_h_% (remaining amount of compound after reaction, 0 minute = 100%)” value in data set [2] worked out at 71.7%.
